In patent US9078894B2 (AB SCIENCE, priority 2011, dated 2015):
Where “and” joins values, the source holds several entries; their conditions need not be identical. Equal values may be shown once.

Legend:
[1] = tested on: asthmatic patients with severe persistent asthma; assay: Phase 2a 16-week double-blind placebo-controlled study in severe persistent asthma; type: in vivo, human; parameters: Oral corticosteroids absolute change (W 4 to W 16), Mean ± SD / Oral corticosteroids absolute change (W 4 to W 16), Median: unit not given here
Description: The trial consisted of three phases: during the first 4 weeks, the corticosteroid dose remained constant; during the following 8 weeks, oral corticosteroid doses were decreased each week according to a predefined schedule, until weaning or an asthma exacerbation occurred; the final 4 weeks were a stabilization period for observation. Asthma exacerbation was defined as a deterioration of asthma symptoms requiring an emergency visit, a hospitalization or an increase in oral corticosteroid treatment. In case an asthma exacerbation occurred, oral corticosteroid therapy was resumed at the level prior to this occurrence following the acute treatment phase. Patients underwent a visit every 2 weeks during the first 4 weeks, then a weekly visit for the following 12 weeks. A possible treatment extension was part of the study protocol in case of clinical benefit, based on the investigators assessment. In these extension phases the follow-up of patients took place every 4 weeks during the first 3 months and then every 12 weeks until the end of the study. The primary objective was to measure the reduction of oral corticosteroids doses after 16 weeks of treatment. Therefore, efficacy and safety measurements were assessed at enrolment of each patient in the study prior to the administration of the investigational compound and then at week 2, and weekly from weeks 4 through to 16. The secondary objectives were to monitor the change from baseline in symptomatic scores (asthma control questionnaire, ACQ), the FEV1 and rescue medication intake when necessary. Patients, 18 to 75 years of age with a diagnosis of asthma for ≧3 years and severe uncontrolled disease for ≧1 year, and followed up at the same centre for ≧1 year, were eligible for this study. […] Exclusion criteria included: (a) any other significant respiratory or cardiac disease; (b) worsening of asthma symptoms requiring treatment with additional oral corticosteroids within 4 weeks of screening; (c) any other infections; (d) a history of acute infection requiring hospitalization or treatment with antibiotics within 2 weeks of screening; (e) rare variants of severe asthma such as Churg-Strauss syndrome or allergic bronchopulmonary aspergillosis; […] A treatment wash-out period of 4 months at time of enrolment was required for prior use of omalizumab.

[2] = tested on: experimentally asthmatic cats; assay: Experimental feline asthma, randomized blinded placebo-controlled study; type: in vivo, cat
Description: Twelve experimentally asthmatic cats were enrolled in a randomized, blinded, placebo-controlled study. […] Exclusion criteria were evidence of cardiac insufficiency, evidence of gastric bleeding, major surgery within 2 weeks of treatment initiation, life expectancy less than 3 months, lactating or pregnant cats or cats intended for breeding, previous history of kidney disease or previous known episodes of proteinuria, administration of food listed on the “recall list” issued by FDA or vaccination within 4 weeks prior to enrollment, and any concurrent medical illness. […] Bronchoalveolar lavage fluid (BALF) eosinophil percentages and airway hyper-reactivity, determined by changes in ventilator mechanics in response to methacholine (MCh) challenge were evaluated at baseline, weeks 4, 8 and 12. Results of the MCh challenge were reported as the effective concentration of MCh that increased baseline airway resistance by 200% (EC200Raw) and the end-inspiratory pressure after a breath hold (plateau pressure, Pplat). Treatment was interrupted or discontinued if predetermined adverse events were noted. Cats naïve to Bermuda grass allergen (BGA) confirmed by intradermal skin testing (IDST) and with normal BALF underwent allergen sensitization. IDST was re-evaluated to confirm allergen sensitization. Next, allergen challenge of BGA as an aerosol in awake, spontaneously breathing cats was performed. Allergen solution (100 μg of BGA dissolved in PBS) was aerosolized into a clear chamber using an air compressor attached to a nebulizer. Seven challenges were administered over the next 2 weeks, at which time BALF was repeated to confirm development of eosinophilic airway inflammation. Bronchoalveolar lavage fluid was collected in a blind fashion at baseline and weeks 4, 8, and 12 of the study. Collection of BALF was obtained after Mch challenge and under the same anesthesia. A total nucleated cell count was performed on each BALF sample using a coulter counter. Cytological evaluation and differential cell counts were performed on samples prepared by cytocentrifugation. Differential cell counts (200 nucleated cells per slide) on modified Wright's stained slides were performed, and cell percentages were reported.

[3] = tested on: Balb/c male mice sensitized with ovalbumine; assay: Murine model of allergic airway inflammation (ovalbumine); type: in vivo, mouse; details: oral, twice daily, 25 and 100 mg/kg/day; sensitized and challenged animals
Method: Balb/c male mice aged 9 weeks were sensitized with ovalbumine (50 μg) adsorbed with Al(OH)3 diluted in physiological saline (0.9% NaCl) by intraperitoneal injection on day 1 and 7. Sensitization was followed by intranasal challenges with ovalbumine (10 μg) diluted in 0.9% NaCl every day from day 18 to day 21. Non sensitized control animals received intraperitoneal injections of vehicle alone followed by intranasal challenges with NaCl 0.9% alone at the same time than the sensitized animals. […] On day 22, airway hyper responsiveness (AHR) was measured by the enhanced pause (PenH) in the whole body plethysmograph. The bronchoconstrictive response was evaluated as the response to a concentration-dependent methacholine (MCh) aerosol exposure. Mice were first exposed to a saline aerosol then to an aerosol generated from increasing concentrations of methacholine (0.05, 0.1, 0.2, 0.3, and 0.4M). Infiltration of inflammatory cells was measured immediately after assessment of AHR to methacholine via collection of bronchoalveolar lavage (BAL) fluid by lavage of the whole lung with physiological saline containing 1.6 mM EDTA. Cells were counted in the BAL and cell types identified by morphological criteria after Hemacolor staining.

[4] = tested on: human cord blood mast cells; details: cited from earlier work
patients [5] = details: estimated exposure of about 57,300 patients, June 2003 through December 2006; cited from earlier work
patients [6] = details: 20 of 4127 patients; cited from earlier work
[7] = ITT population, 3.0 mg/kg/day (N = 12)
[8] = ITT population, 4.5 mg/kg/day (N = 11)
[9] = ITT population, 6.0 mg/kg/day (N = 10)
[10] = ITT population, all masitinib (N = 33)
[11] = subpopulation initially treated with >15 mg prednisone daily, 3.0 mg/kg/day (N = 9)
[12] = subpopulation initially treated with >15 mg prednisone daily, 4.5 mg/kg/day (N = 4)
[13] = subpopulation initially treated with >15 mg prednisone daily, 6.0 mg/kg/day (N = 6)
[14] = subpopulation initially treated with >15 mg prednisone daily, all masitinib (N = 19)

Cc1ccc(NC(=O)c2ccc(CN3CCN(C)CC3)cc2)cc1Nc1nc(-c2cccnc2)cs1 [masitinib, 4-(4-methylpiperazin-1-ylmethyl)-N-[4-methyl-3-(4-pyridin-3ylthiazol-2-ylamino)phenyl]benzamide]
ACQ score change ([1]; 3.0 mg/kg dose): 0.56 units | ACQ score change ([1]; 4.5 mg/kg dose): 1.57 units | ACQ score change ([1]; 6 mg/kg dose): 0.89 units | improvement of ACQ score at W16 ([1]; ITT analysis, all masitinib-treated patients, p<0.001): 0.99 unit | Oral corticosteroids absolute change (W 4 to W 16), Mean ± SD [1, 7]: −10.7 ± 19.2 | Oral corticosteroids absolute change (W 4 to W 16), Median [1, 7]: −14.0 | Patients weaned at W 16, number (percent) [1, 7]: 5 (41.7%) | Oral corticosteroids absolute change (W 4 to W 16), Mean ± SD [1, 8]: 0.2 ± 26.8 | Oral corticosteroids absolute change (W 4 to W 16), Median [1, 8]: −7.5 | Patients weaned at W 16, number (percent) [1, 8]: 2 (25.0%) | Oral corticosteroids absolute change (W 4 to W 16), Mean ± SD [1, 9]: −12.2 ± 18.5 | Oral corticosteroids absolute change (W 4 to W 16), Median [1, 9]: −11.3 | Patients weaned at W 16, number (percent) [1, 9]: 3 (37.5%) | Oral corticosteroids absolute change (W 4 to W 16), Mean ± SD [1, 10]: −8.0 ± 21.3 | Oral corticosteroids absolute change (W 4 to W 16), Median [1, 10]: −12.3 | Patients weaned at W 16, number (percent) [1, 10]: 10 (35.7%) | masitinib-related AE: diarrhea ([1]; all masitinib-treated patients): 18.2% | masitinib-related AE: fatigue ([1]; all masitinib-treated patients): 12.1% | masitinib-related AE: nausea ([1]; all masitinib-treated patients): 30.3% | masitinib-related AE: peripheral edema ([1]; all masitinib-treated patients): 18.2% | masitinib-related AE: pruritus ([1]; all masitinib-treated patients): 12.1% | masitinib-related AE: skin rash ([1]; all masitinib-treated patients): 30.3% | masitinib-related AE: vomiting ([1]; all masitinib-treated patients): 12.1% | patients who experienced at least one AE ([1]; all patients treated with masitinib, regardless of dose): 93.9% | change in lung function ([1]; in this trial): no significant change in lung function | asthma exacerbation rate in patients experiencing at least one exacerbation, decrease ([1]; masitinib group, all doses merged): 42.4% | rate of asthma exacerbation compared to placebo ([1]; masitinib-treated patients): significantly reduced | percent reduction in oral corticosteroid doses ([1]; patients receiving >15 mg equivalent prednisone per day at baseline, all masitinib-treated patients): 52±53% | patients weaned off oral corticosteroids at W16, number ([1]; patients receiving >15 mg equivalent prednisone per day at baseline, masitinib treatment groups): six | Oral corticosteroids absolute change (W 4 to W 16), Mean ± SD [1, 11]: −17 ± 9 | Oral corticosteroids absolute change (W 4 to W 16), Median [1, 11]: −20 | Oral corticosteroids percent change (W 4 to W 16), Mean ± SD [1, 11]: −68 ± 38% | Oral corticosteroids percent change (W 4 to W 16), Median [1, 11]: −81% | Patients weaned at W 16, number (percent) [1, 11]: 4 (44.4%) | Oral corticosteroids absolute change (W 4 to W 16), Mean ± SD [1, 12]: −7 ± 8 | Oral corticosteroids absolute change (W 4 to W 16), Median [1, 12]: −5 | Oral corticosteroids percent change (W 4 to W 16), Mean ± SD [1, 12]: −33 ± 42% | Oral corticosteroids percent change (W 4 to W 16), Median [1, 12]: −19% | Patients weaned at W 16, number (percent) [1, 12]: 0 (0.0%) | Oral corticosteroids absolute change (W 4 to W 16), Mean ± SD [1, 13]: −14 ± 22 | Oral corticosteroids absolute change (W 4 to W 16), Median [1, 13]: −16 | Oral corticosteroids percent change (W 4 to W 16), Mean ± SD [1, 13]: −40 ± 78% | Oral corticosteroids percent change (W 4 to W 16), Median [1, 13]: −69% | Patients weaned at W 16, number (percent) [1, 13]: 2 (33.3%) | Oral corticosteroids absolute change (W 4 to W 16), Mean ± SD [1, 14]: −14 ± 14 | Oral corticosteroids absolute change (W 4 to W 16), Median [1, 14]: −15 | Oral corticosteroids percent change (W 4 to W 16), Mean ± SD [1, 14]: −52 ± 53% | Oral corticosteroids percent change (W 4 to W 16), Median [1, 14]: −65% | proteinuria, cats affected ([2]; 50 mg/day, p=0.002 vs placebo): every cat | group mean±SD % BALF eosinophils ([2]; after 4 weeks of therapy, 50 mg orally once daily, p=0.023 vs placebo): 7±9% | Pplat with MCh challenge ([2]; after 4 weeks of therapy, no significant increase in masitinib-treated cats (p=0.32)): blunting of airflow limitation | group mean±SD EC200Raw, difference between groups ([2]; at baseline or after 4 weeks of therapy, MCh challenge): no significant difference | permanent discontinuation due to proteinuria ([2]; at or after week 4): four | temporary drug interruption followed by dose reduction due to proteinuria ([2]; at or after week 4): two | other side effects suspected of being associated with masitinib administration ([2]; infrequent overall, no specific therapy required): vomiting, diarrhea, Heinz bodies, hypoalbuminemia, hypoglobulinemia, hypercholesterolemia and ALT increase | masitinib-treated cats with % BALF eosinophils <17% ([2]; week 4): five of six | % BALF eosinophils, values of individual cats ([2]; week 4, the five masitinib-treated cats below 17%): 1% (2×) and 2% and 3.5% and 15% | change in Pplat with MCh challenge versus saline aerosol, compared between treatment groups ([2]; week 4 compared to baseline): significant (p=0.033) decrease | Penh (airway hyper responsiveness) [3]: a decrease of Penh | number of eosinophils in the bronchoalveolar lavage fluid [3]: marked decrease | FcεRI-mediated degranulation [4]: inhibition of FcεRI-mediated degranulation

omalizumab: an anti-immunoglobulin E antibody (anti-IgE) approved for severe allergic asthma
frequency of anaphylaxis attributed to omalizumab use (patients [5]): at least 0.2% | malignant neoplasms observed in omalizumab-treated patients (patients [6]): 0.5%
